Results reported in patent US4241056A, “Penicillins and salts thereof” (Boehringer Ingelheim GmbH, priority 1978, dated 1980).
In brackets after ≈: the same amount, converted by molar mass.

What was measured:
Test in all cases: MIC, serial dilution test in the microtiter system
Type in all cases: cell-based
[1] = tested on: klebsiella pneumoniae 272; conditions: 18 h, klebs pneum. 272, 37° C., 18-20 hours
Method: (§1) The tests were performed according to the method of the serial dilution test in the microtiter system. The effect of the substances on bacteriostasis was examined in a fluid medium. The activity on bacteriostatis was examined at the following concentrations:
(§2) 10 gm of peptone, 8 gm of meat extract-oxoid, 3 gm of sodium chloride, 2 gm of sec. sodium phosphate were diluted with distilled water to 1000 ml (pH 7.2-7.4). Only in the test against streptococci 1% of glucose was added. The age of the primary cultures was about 20 hours. The standardizations of the pathogen suspension was effected by using a photometer according to "Eppendorf" (test tube diameter 14 mm, filter 546 nm) with the aid of the turbidity of a comparison suspension consisting of barium sulfate, this suspension being prepared by addition of 3.0 ml of 1% barium chloride solution to 97 ml of 1% sulfuric acid. After the standardization, streptococcus aronson were further diluted to a concentration of 1:15 and the other germs to a concentration of 1:1500 by menas of a sodium chloride solution.
(§3) 16 mg of the test substance were put into a 10 ml measuring flask and filled up to the mark with the solvent. The further dilution series was standardized with distilled water or the respective solvent.
(§4) The cavities of the microtiter plates were filled with 0.2 ml of nutrient medium. Then, 0.01 ml of the corresponding test substance dilution was added and inoculated with 0.01 ml of the standardized suspension. The bacteria were incubated at 37° C. for 18-20 hours. Control tests merely using the solvent were carried out simultaneously.
(§5) The measurement was carried out macroscopically to determine the minimal inhibitory (threshold) concentration, i.e. the lowest still bacteriostatically effective concentration.
(§6) Staphylococcus aureus SG 511, streptococcus aronson, streptococcus faecalis ATCC 10541, escherichia coli ATCC 9637, 11 775 and escherichia coli 12593/74 (β-lactamase carrier), pseudomonas aeruginosa hamburgensis and ATCC 10145, serratia marcescens ATCC 13 880, klebsiella pneumoniae ATCC 10 031 and 272 and proteus mirabilis hamburgensis.

[2] = tested on: proteus mirabilis hamburgensis; conditions: 18 h, prot. mirabilis, 37° C., 18-20 hours
Method: as §1, §2, §3, §4, §5, §6

[3] = tested on: pseudomonas aeruginosa hamburgensis; conditions: 18 h, pseud. aerug. hamb., 37° C., 18-20 hours
Method: as §1, §2, §3, §4, §5, §6

[4] = tested on: escherichia coli 12593/74 (β-lactamase carrier); conditions: 18 h, E. coli 12593/74 (β-lactamase carrier), 37° C., 18-20 hours
Method: as §1, §2, §3, §4, §5, §6

[5] = tested on: serratia marcescens ATCC 13 880; conditions: ATCC13, 18 h, serrat marcesc., 37° C., 18-20 hours
Method: as §1, §2, §3, §4, §5, §6

[6] = tested on: pseudomonas aeruginosa ATCC 10145; conditions: ATCC10145, 18 h, pseud. aerug. ATCC 10145, 37° C., 18-20 hours
Method: as §1, §2, §3, §4, §5, §6

[7] = tested on: klebsiella pneumoniae ATCC 10 031; conditions: 18 h, klebs pneum ATCC 10031, 37° C., 18-20 hours
Method: as §1, §2, §3, §4, §5, §6

streptococcus aronson = conditions: 18 h, strept. aronson, 1% glucose added, 37° C., 18-20 hours
Method: as §1, §2, §3, §4, §5, §6

[8] = tested on: escherichia coli ATCC 9637; conditions: ATCC9637, 18 h, E. coli ATCC 9637, 37° C., 18-20 hours
Method: as §1, §2, §3, §4, §5, §6

[9] = tested on: escherichia coli ATCC 11775; conditions: ATCC11775, 18 h, E. coli ATCC 11775, 37° C., 18-20 hours
Method: as §1, §2, §3, §4, §5, §6

[10] = tested on: Staphylococcus aureus SG 511; conditions: SG511, 18 h, Staph. Aureus SG 511, 37° C., 18-20 hours
Method: as §1, §2, §3, §4, §5, §6

[11] = tested on: streptococcus faecalis ATCC 10541; conditions: Enterococcus faecalis, ATCC10541, 18 h; strept. faecal.; 37° C., 18-20 hours
Method: as §1, §2, §3, §4, §5, §6

Row | Structure (SMILES) | MIC [1] [µg/mL] | MIC [2] [µg/mL] | MIC [3] [µg/mL] | MIC [4] [µg/mL] | MIC [5] [µg/mL] | MIC [6] [µg/mL] | MIC [7] [µg/mL] | MIC (streptococcus aronson) [µg/mL] | MIC [8] [µg/mL] | MIC [9] [µg/mL] | MIC [10] [µg/mL] | MIC [11] [µg/mL]
1 | CN(C)C(=O)Nc1ncc(NC(=O)N[C@@H](C(=O)N[C@@H]2C(=O)N3[C@@H]2SC(C)(C)[C@@H]3C(=O)O)c2ccc(O)cc2)c(O)n1 [M] | > 80 | 2.5 (≈ 4.25 µM) | 5 (≈ 8.49 µM) | > 80 | 10 (≈ 17 µM) | 5 (≈ 8.49 µM) | > 80 | 0.3 (≈ 0.51 µM) | 10 (≈ 17 µM) | 2.5 (≈ 4.25 µM) | 1.25 (≈ 2.12 µM) | 80 (≈ 136 µM)
2 | CNc1ncc(NC(=O)N[C@@H](C(=O)N[C@@H]2C(=O)N3[C@@H]2SC(C)(C)[C@@H]3C(=O)O)c2ccc(O)cc2)c(O)n1 [N, D-α-[3-(4-hydroxy-2-methylamino-5-pyrimidyl)-ureido]-p-hydroxybenzyl-penicillin sodium] | 40 | 0.3 | 2.5 | > 80 | 5 | 2.5 | 80 | 0.08 | 2.5 | 2.5 | 0.3 | 10
3 | CC1(C)S[C@@H]2[C@H](NC(=O)[C@H](NC(=O)Nc3cnc(NCc4ccc(Cl)cc4)nc3O)c3ccc(O)cc3)C(=O)N2[C@H]1C(=O)O [O, D-α-[3-(2-p-chlorobenzylamino-4-hydroxy-5-pyrimidyl)-ureido]-p-hydroxybenzyl-penicillin sodium] | 10 | 0.3 | 10 | 80 | 1.25 | 5 | 20 | 0.02 | 0.3 | 0.65 | 0.3 | 10
4 | CCCNc1ncc(NC(=O)N[C@@H](C(=O)N[C@@H]2C(=O)N3[C@@H]2SC(C)(C)[C@@H]3C(=O)O)c2ccc(O)cc2)c(O)n1 [P, D-α-[3-(4-hydroxy-2-propylamino-5-pyrimidyl)-ureido]-p-hydroxybenzyl-penicillin sodium] | 10 | 0.08 | 2.5 | 80 | 1.25 | 1.25 | 10 | 0.08 | 1.25 | 1.25 | 0.3 | 5
5 | CC1(C)S[C@@H]2[C@H](NC(=O)[C@H](NC(=O)N3CCN(S(C)(=O)=O)C3=O)c3ccccc3)C(=O)N2[C@H]1C(=O)O [R, reference compound] | – | – | 40 (≈ 74.1 µM) | – | – | 20 (≈ 37.1 µM) | – | – | 10 (≈ 18.5 µM) | 5 (≈ 9.27 µM) | – | –
6 | CC1(C)S[C@@H]2[C@H](NC(=O)[C@H](NC(=O)Nc3cnccc3O)c3ccccc3)C(=O)N2[C@H]1C(=O)O [S, D-α-[(4-hydroxy-3-pyridyl)-ureido]benzylpenicillin sodium, reference compound] | – | – | 20 | – | – | 20 | – | – | 10 | 2.5 | – | –
